In test [1] the test system is aged Fisher rats. The test is described as follows: Erectile function: intracavernous pressure after cavernous nerve stimulation in aged rats. The class given is in vivo, rat. The note with it: ABH 6 mg/kg in drinking water 28 days. The protocol:
Aged (22-26 months) Fisher rats were given either ABH (6 mg/kg in their drinking water) or plain water for 28 days. Young (4-8 months) were given plain water for 28 days. Rats were then anesthetized and erectile function was evaluated as an indicator of vascular function, by measuring intra-cavernous pressure following electrical stimulation of the cavernous nerve using an electrode placed around the pelvic nerve which innervates the penis (Cama, et al., 2003 Biochemistry 42: 8445-8451). The change in intracavernosal pressure was measured via a catheter placed in the corpora cavernosa. A range of stimulation frequencies were used to measure relaxation effects (and consequentially vascular dependent erectile responses) over their entire functional range.

The test system of test [2] is rat aortic rings. The test is described as follows: Vasorelaxation of aortic rings in organ chambers after 28 days oral ABH. It counts as in vivo. The procedure:
To investigate whether these changes in vascular stiffness could be related to specific measures of endothelial function, rats were euthanized following treatment, and the thoracic aortas dissected and placed in organ chambers as previously described (White, et al., 2006 Hypertension 47: 245-251). Rat aortic rings were pre-constricted using phenylephrine (1 μM), and vasorelaxant response to the endothelial-dependent (NO mediated) vasodilator acetylcholine (ACh), administered at 1 μM to 10 μM, was determined. […] ABH had no effect on vascular endothelial relaxation in young rats.

In test [3] the target is T1, arginase II (Homo sapiens, UniProt P78540).
T1 sequence (P78540 23-354): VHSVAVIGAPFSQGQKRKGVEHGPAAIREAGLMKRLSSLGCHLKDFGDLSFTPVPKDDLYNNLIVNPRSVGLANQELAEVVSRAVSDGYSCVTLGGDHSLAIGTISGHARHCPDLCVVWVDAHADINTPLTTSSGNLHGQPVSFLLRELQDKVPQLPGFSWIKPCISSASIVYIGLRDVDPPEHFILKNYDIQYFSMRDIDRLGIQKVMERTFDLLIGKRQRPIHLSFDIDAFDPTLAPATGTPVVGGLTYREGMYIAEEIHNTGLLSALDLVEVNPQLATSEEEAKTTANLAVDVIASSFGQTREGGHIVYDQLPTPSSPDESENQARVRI
The note with it: cited from earlier work.

The target in test [4] is T2, arginase I (Homo sapiens, UniProt P05089).
T2 sequence (P05089 1-322): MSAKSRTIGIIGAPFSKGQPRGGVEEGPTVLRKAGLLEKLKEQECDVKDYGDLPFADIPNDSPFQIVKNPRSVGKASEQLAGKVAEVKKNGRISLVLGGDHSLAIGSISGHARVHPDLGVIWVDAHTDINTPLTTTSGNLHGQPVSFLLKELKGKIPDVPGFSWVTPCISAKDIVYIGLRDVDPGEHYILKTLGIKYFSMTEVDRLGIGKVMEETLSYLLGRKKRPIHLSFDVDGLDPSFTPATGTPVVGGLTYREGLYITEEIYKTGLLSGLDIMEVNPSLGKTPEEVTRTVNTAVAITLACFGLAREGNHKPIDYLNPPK
The note with it: cited from earlier work.

[5] abbreviates: cavernous nerve stimulation, vs controls.

`N[C@@H](CCCCB(O)O)C(=O)O` [ABH, 2(S)-Amino-6-boronohexanoic acid]: the “all penile hemodynamic parameters after CNS” value in test [1] was “marked improvement”. Also, in test [1] (setting [5]), the “ratio of mean peak intracavernous pressure (ICP) to mean arterial pressure (MAP)” value is “marked increase” and the “total ICP (area under the erectile curve)” value is given as “marked increase”. The “responses to the endothelial-independent NO donor SNP in aortic rings” value in test [2] (after 28 days oral ABH) was “not affected”. In addition, the “vascular relaxation to acetylcholine (ACh) in aortic rings” value in test [2] (aged rats, 28 days oral ABH, rings pre-constricted with phenylephrine 1 μM) is recorded as “substantially improved”. Moreover, the “vascular endothelial relaxation in aortic rings” value in test [2] (young rats) was “no effect”. Further, in test [3], the “potency as inhibitor of arginase II” value is given as “most potent inhibitor”. The “potency as inhibitor of arginase I” value in test [4] is on record as “most potent inhibitor”.

These data come from patent US20120065165A1, “COMPOSITIONS AND METHODS OF TREATING ENDOTHELIAL DISORDERS” (ARGINETIX, INC, priority 2008, published 2012).
